Where two headings read alike, the source gives them in different places.
Columns and labels:
[1] = tested on: EBC-1 lung cancer cell line; experiment: High-throughput screening, CellTiter-Glo cell viability assay at 100 nM; type: cell-based, human; details: Homo sapiens, EBC-1, HTS, compounds at 100 nM, 72 h, read-out: cytotoxicity expressed in IC50, EBC-1 (results of High throughput screening)
[2] = tested on: H2228 lung cancer cell line; experiment: as above; type: cell-based, human; details: Homo sapiens, NCI-H2228, HTS, compounds at 100 nM, 72 h, read-out: cytotoxicity expressed in IC50, H2228 (results of High throughput screening)
[3] = tested on: Panc1 pancreatic cancer cell line; experiment: CellTiter-Glo IC50 (Example 19); type: cell-based; details: Homo sapiens, PANC-1, 72 h
Procedure, shortened: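 Cells were seeded at 1000 cells/well and kept at 37 °C, 5% CO2. After compound treatment, viability was read by CellTiter-Glo luminescence as % of untreated control. IC50 came from a non-linear log(inhibitor) vs response fit with variable slope.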

[4] = tested on: Detroit 562 cell line; experiment: Additional in vitro IC50 tests (Table 3); type: cell-based; details: Homo sapiens
Procedure, shortened: (§1)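 Cells at 1000/well, viability by CellTiter-Glo luminescence after compound treatment, as % of untreated control. IC50 from variable-slope log(inhibitor) vs response nonlinear regression.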

[5] = tested on: EBC-1 cell line; experiment: Additional in vitro IC50 tests (Table 3); type: cell-based; details: Homo sapiens
Procedure, shortened: as §1

[6] = tested on: Fadu cell line; experiment: Additional in vitro IC50 tests (Table 3); type: cell-based; details: Homo sapiens
Procedure, shortened: as §1

[7] = tested on: H2228 cell line; experiment: Additional in vitro IC50 tests (Table 3); type: cell-based; details: Homo sapiens, NCI-H2228
Procedure, shortened: as §1

[8] = tested on: SCC-25 cell line; experiment: Additional in vitro IC50 tests (Table 3); type: cell-based; details: Homo sapiens
Procedure, shortened: as §1

[9] = tested on: Capan-1 (pancreas, adenocarcinoma) cells; experiment: Cell viability assay, CellTiter-Glo (Example 21); type: cell-based, human; details: 72 h treatment
Procedure, shortened: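 Capan-1 cells were seeded at 1000 cells/well in flat-bottomed white 96 well plates (BRANDplates®), with density optimized for cell size and growth rate. Following compound treatment, viability was measured with the CellTiter-Glo® luminescent assay (Promega) per the manufacturer's instructions, reading luminescence on a BioTek Synergy 2 Multi-Mode Reader.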

[10] = tested on: DU 145 (prostate, carcinoma) cells; experiment: Cell viability assay, CellTiter-Glo (Example 21); type: cell-based, human; details: 72 h
Procedure, shortened: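 DU 145 cancer cell viability was assessed with the CellTiter-Glo® luminescent assay (Promega, Madison, WI, USA), following the manufacturer's instructions. Cells were seeded at 1000 cells/well in flat-bottomed white 96 well plates, and after treatment luminescence was read on a BioTek Synergy 2 Multi-Mode Reader.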

[11] = tested on: MDA-MB-231 (breast, adenocarcinoma) cells; experiment: Cell viability assay, CellTiter-Glo (Example 21); type: cell-based, human; details: 72 h treatment
Procedure, shortened: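 MDA-MB-231 breast adenocarcinoma cells were seeded at 1500 cells/well in flat-bottomed white 96 well plates (BRANDplates®, cat. no.: 781965). Following compound exposure, viability was assessed with the CellTiter-Glo® luminescent assay (Promega) following the manufacturer's protocol, and luminescence was read on a BioTek Synergy 2 Multi-Mode Reader.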

[12] = tested on: MDA-MB-453 (breast, carcinoma) cells; experiment: Cell viability assay, CellTiter-Glo (Example 21); type: cell-based, human; details: 72 h treatment
Procedure, shortened: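 Seeding density per line: Panc-1 750, FaDu 1000, Detroit 562 and MDA-MB-453 1500 cells/well. Viability after treatment read by CellTiter-Glo luminescence; dose-response curves fitted by four-parameter variable-slope non-linear regression.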

[13] = tested on: MIA PaCa-2 (pancreas, carcinoma) cells; experiment: Cell viability assay, CellTiter-Glo (Example 21); type: cell-based, human; details: 72 h treatment
Procedure, shortened: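 MIA PaCa-2 pancreatic carcinoma cells were seeded at 1000 cells/well in flat-bottomed white 96 well plates (BRANDplates®, cat. no.: 781965) and treated with compound. Viability was then determined with the CellTiter-Glo® luminescent cell viability assay (Promega) following the manufacturer's instructions, with luminescence read on a BioTek Synergy 2 Multi-Mode Reader.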

[14] = tested on: PC-3 (prostate, adenocarcinoma) cells; experiment: Cell viability assay, CellTiter-Glo (Example 21); type: cell-based, human; details: 72 h treatment
Procedure, shortened: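 PC-3 prostate adenocarcinoma cells were seeded at 1000 cells/well in flat-bottomed white 96 well plates and treated with compounds. Viability was then determined with the CellTiter-Glo® luminescent assay (Promega) following the manufacturer's instructions, with luminescence read on a BioTek Synergy 2 Multi-Mode Reader.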

[15] = tested on: SCC-25 (tongue, squamous cell carcinoma) cells; experiment: Cell viability assay, CellTiter-Glo (Example 21); type: cell-based, human; details: 72 h treatment
Procedure, shortened: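 SCC-25 tongue squamous cell carcinoma cells were seeded at 1000 cells/well in flat-bottomed white 96 well plates, treated with compound, and viability was then determined with the CellTiter-Glo luminescent assay (Promega) following the manufacturer's instructions. Luminescence was read on a BioTek Synergy 2 Multi-Mode Reader.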

[16] = tested on: Panc-1 human cell line; experiment: Cytotoxicity on Panc-1, xCELLigence SP, IC50 after 24 h, 48 h, 72 h and 96 h (Example 22)
[17] = PANC-1, 72 h, read-out: IC50 (72 h) [nM]
[18] = PANC-1, 96 h, read-out: IC50 (96 h) [nM]

SMILES	IC50 [1] [nM]	IC50 [2] [nM]	IC50 [3] [nM]	IC50 [4] [nM]	IC50 [5] [nM]	IC50 [6] [nM]	IC50 [7] [nM]	IC50 [8] [nM]	Capan-1 (pancreas, adenocarcinoma) cell viability (% of control) ([9]; 3.7 nM)	Capan-1 (pancreas, adenocarcinoma) cell viability (% of control) ([9]; 11.1 nM)	Capan-1 (pancreas, adenocarcinoma) cell viability (% of control) ([9]; 100 nM)	Capan-1 (pancreas, adenocarcinoma) cell viability (% of control) ([9]; 300 nM)	DU 145 cell viability ([10]; 3.7 nM)	DU 145 cell viability ([10]; 11.1 nM)	DU 145 cell viability ([10]; 100 nM)	DU 145 cell viability ([10]; 300 nM)	MDA-MB-231 (breast, adenocarcinoma) cell viability (% of control) ([11]; 3.7 nM)	MDA-MB-231 (breast, adenocarcinoma) cell viability (% of control) ([11]; 11.1 nM)	MDA-MB-231 (breast, adenocarcinoma) cell viability (% of control) ([11]; 100 nM)	MDA-MB-231 (breast, adenocarcinoma) cell viability (% of control) ([11]; 300 nM)	also measured
O=C1C2=C(CCN(Cc3cc(F)cc(F)c3)C2)N2CCN=C2N1Cc1ccc(C(F)(F)F)cc1 [I/30, 7-(3,5-Difluorobenzyl)-4-(4-(trifluoromethyl)benzyl)-2,4,6,7,8,9-hexahydroimidazo[1,2-a]pyrido[3,4-e]pyrimidin-5(1H)-one]	< 100	< 100	3	2	5	5	5	6	100.8 ± 5.3 % of control	38.4 ± 4.5 % of control	34.0 ± 2.8 % of control	33.1 ± 1.7 % of control	37.2 ± 10.4 % of control	7.0 ± 0.9 % of control	7.0 ± 1.1 % of control	8.0 ± 2.9 % of control	100.0 ± 4.5 % of control	59.9 ± 2.1 % of control	52.1 ± 1.8 % of control	52.6 ± 2.5 % of control	MDA-MB-453 (breast, carcinoma) cell viability (% of control) ([12]; 3.7 nM): 58.0 ± 24.4 % of control; MDA-MB-453 (breast, carcinoma) cell viability (% of control) ([12]; 11.1 nM): 34.8 ± 3.3 % of control; MDA-MB-453 (breast, carcinoma) cell viability (% of control) ([12]; 100 nM): 31.1 ± 1.8 % of control; MDA-MB-453 (breast, carcinoma) cell viability (% of control) ([12]; 300 nM): 28.9 ± 1.0 % of control; MIA PaCa-2 (pancreas, carcinoma) cell viability (% of control) ([13]; 3.7 nM): 65.7 ± 12.6 % of control; MIA PaCa-2 (pancreas, carcinoma) cell viability (% of control) ([13]; 11.1 nM): 19.1 ± 8.0 % of control; MIA PaCa-2 (pancreas, carcinoma) cell viability (% of control) ([13]; 100 nM): 16.7 ± 6.7 % of control; MIA PaCa-2 (pancreas, carcinoma) cell viability (% of control) ([13]; 300 nM): 17.6 ± 7.6 % of control; PC-3 (prostate, adenocarcinoma) cell viability (% of control) ([14]; 3.7 nM): 78.9 ± 4.6 % of control; PC-3 (prostate, adenocarcinoma) cell viability (% of control) ([14]; 11.1 nM): 36.6 ± 1.8 % of control; PC-3 (prostate, adenocarcinoma) cell viability (% of control) ([14]; 100 nM): 32.1 ± 3.6 % of control; PC-3 (prostate, adenocarcinoma) cell viability (% of control) ([14]; 300 nM): 31.3 ± 2.5 % of control; SCC-25 (tongue, squamous cell carcinoma) cell viability (% of control) ([15]; 3.7 nM): 78.7 ± 15.0 % of control; SCC-25 (tongue, squamous cell carcinoma) cell viability (% of control) ([15]; 11.1 nM): 35.0 ± 14.5 % of control; SCC-25 (tongue, squamous cell carcinoma) cell viability (% of control) ([15]; 100 nM): 32.9 ± 2.1 % of control; SCC-25 (tongue, squamous cell carcinoma) cell viability (% of control) ([15]; 300 nM): 36.3 ± 2.6 % of control; IC50 [16, 17]: 2.08 ± 0.267 nM; IC50 [16, 18]: 0.517 ± 0.0232 nM
[N-]=[N+]=Nc1ccc(CN2C(=O)C3=C(CCN(Cc4cc(F)cc(F)c4)C3)N3CCN=C23)cc1 [I/107, 4-(4-Azidobenzyl)-7-(3,5-difluorobenzyl)-2,4,6,7,8,9-hexahydroimidazo[1,2-a]pyrido[3,4-e]pyrimidin-5(1H)-one]	< 100	< 100	14	7	17	19	24	31	103.5 ± 3.0 % of control	101.2 ± 5.2 % of control	37.6 ± 2.3 % of control	34.7 ± 2.9 % of control	101.2 ± 6.5 % of control	48.7 ± 1.7 % of control	8.3 ± 2.9 % of control	9.0 ± 2.9 % of control	102.1 ± 3.5 % of control	98.6 ± 0.8 % of control	57.3 ± 1.8 % of control	55.7 ± 0.9 % of control	MDA-MB-453 (breast, carcinoma) cell viability (% of control) ([12]; 3.7 nM): 107.2 ± 9.1 % of control; MDA-MB-453 (breast, carcinoma) cell viability (% of control) ([12]; 11.1 nM): 47.8 ± 6.2 % of control; MDA-MB-453 (breast, carcinoma) cell viability (% of control) ([12]; 100 nM): 32.3 ± 1.3 % of control; MDA-MB-453 (breast, carcinoma) cell viability (% of control) ([12]; 300 nM): 32.2 ± 1.3 % of control; MIA PaCa-2 (pancreas, carcinoma) cell viability (% of control) ([13]; 3.7 nM): 102.5 ± 5.4 % of control; MIA PaCa-2 (pancreas, carcinoma) cell viability (% of control) ([13]; 11.1 nM): 91.5 ± 6.6 % of control; MIA PaCa-2 (pancreas, carcinoma) cell viability (% of control) ([13]; 100 nM): 18.8 ± 6.2 % of control; MIA PaCa-2 (pancreas, carcinoma) cell viability (% of control) ([13]; 300 nM): 17.4 ± 7.1 % of control; PC-3 (prostate, adenocarcinoma) cell viability (% of control) ([14]; 3.7 nM): 107.1 ± 5.9 % of control; PC-3 (prostate, adenocarcinoma) cell viability (% of control) ([14]; 11.1 nM): 82.3 ± 7.0 % of control; PC-3 (prostate, adenocarcinoma) cell viability (% of control) ([14]; 100 nM): 32.7 ± 2.6 % of control; PC-3 (prostate, adenocarcinoma) cell viability (% of control) ([14]; 300 nM): 32.8 ± 4.1 % of control; SCC-25 (tongue, squamous cell carcinoma) cell viability (% of control) ([15]; 3.7 nM): 97.3 ± 3.8 % of control; SCC-25 (tongue, squamous cell carcinoma) cell viability (% of control) ([15]; 11.1 nM): 75.6 ± 6.8 % of control; SCC-25 (tongue, squamous cell carcinoma) cell viability (% of control) ([15]; 100 nM): 35.4 ± 5.7 % of control; SCC-25 (tongue, squamous cell carcinoma) cell viability (% of control) ([15]; 300 nM): 42.4 ± 5.7 % of control; IC50 [16, 17]: 102 ± 24.4 nM; IC50 [16, 18]: 49.6 ± 17 nM
